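Following 48 hours of exposure in 96-well plates, responses at five concentrations were used to interpolate endpoints linearly. Abbreviation: GI50, concentration required for 50% inhibition of growth.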 Active and inactive are the calls of the source. Rule as the data show it: active = GI50 up to about 1.1 µM and inactive = higher.
How the values were obtained:
Assay in all cases: NCI anticancer screen, dose series, 48 h
RPMI-8226 = test system: RPMI-8226
UACC-257 = test system: UACC-257
HOP-92 = test system: HOP-92
SNB-19 = test system: SNB-19
COLO 205 = test system: COLO 205
OVCAR-5 = test system: OVCAR-5
BT-549 = test system: BT-549
CAKI-1 = test system: CAKI-1
MDA-N = test system: MDA-N
A498 = test system: A498
MDA-MB-231 = test system: MDA-MB-231
UO-31 = test system: UO-31
SN12C = test system: SN12C
786-0 = test system: 786-0
NCI-H460 = test system: NCI-H460
HT-29 = test system: HT-29
MDA-MB-435 = test system: MDA-MB-435
ACHN = test system: ACHN
TK-10 = test system: TK-10
KM12 = test system: KM12
SF-295 = test system: SF-295
SK-MEL-2 = test system: SK-MEL-2
NCI/ADR-RES = test system: NCI/ADR-RES
NCI-H226 = test system: NCI-H226
SK-OV-3 = test system: SK-OV-3
DU-145 = test system: DU-145
SK-MEL-5 = test system: SK-MEL-5
HCT-116 = test system: HCT-116
NCI-H522 = test system: NCI-H522
SF-268 = test system: SF-268
K562 = test system: K562
MCF7 = test system: MCF7
MOLT-4 = test system: MOLT-4
M14 = test system: M14
HCC 2998 = test system: HCC 2998
HOP-62 = test system: HOP-62
Malme-3M = test system: Malme-3M
U-251 = test system: U-251
PC-3 = test system: PC-3
A549 = test system: A549
SNB-75 = test system: SNB-75
RXF 393 = test system: RXF 393
SK-MEL-28 = test system: SK-MEL-28
HCT-15 = test system: HCT-15
SW-620 = test system: SW-620
OVCAR-4 = test system: OVCAR-4
IGROV-1 = test system: IGROV-1
UACC-62 = test system: UACC-62
EKVX = test system: EKVX
NCI-H23 = test system: NCI-H23
Hs-578T = test system: Hs-578T
SF-539 = test system: SF-539
OVCAR-3 = test system: OVCAR-3
LOX IMVI = test system: LOX IMVI
SR = test system: SR
CCRF-CEM = test system: CCRF-CEM
OVCAR-8 = test system: OVCAR-8
HL-60 = test system: HL-60

## COc1cc(CNc2nc3cc(N)cc(N)c3nc2-c2ccccc2)cc(OC)c1
RPMI-8226
  GI50: 2.2 µM (inactive)
UACC-257
  GI50: 26.1 µM (inactive)

## Oc1c(NCn2nc(CCCCCCCCc3nn(CNc4ccc5ccccc5c4O)c(=S)o3)oc2=S)ccc2ccccc12
HOP-92
  GI50: > 100 µM (inactive)
SNB-19
  GI50: > 100 µM (inactive)
COLO 205
  GI50: > 100 µM (inactive)
OVCAR-5
  GI50: 43.9 µM (inactive)
BT-549
  GI50: > 100 µM (inactive)
CAKI-1
  GI50: > 100 µM (inactive)
MDA-N
  GI50: 17.2 µM (inactive)
A498
  GI50: > 100 µM (inactive)
MDA-MB-231
  GI50: 20 µM (inactive)
UO-31
  GI50: 98.2 µM (inactive)
SN12C
  GI50: > 100 µM (inactive)
786-0
  GI50: 63.2 µM (inactive)
NCI-H460
  GI50: > 100 µM (inactive)
RPMI-8226
  GI50: 46.8 µM (inactive)
HT-29
  GI50: 73.6 µM (inactive)
MDA-MB-435
  GI50: 12.5 µM (inactive)
ACHN
  GI50: > 100 µM (inactive)
TK-10
  GI50: 68.1 µM (inactive)
KM12
  GI50: 28.2 µM (inactive)
SF-295
  GI50: 33.7 µM (inactive)
SK-MEL-2
  GI50: 42.8 µM (inactive)
NCI/ADR-RES
  GI50: 44.5 µM (inactive)
NCI-H226
  GI50: > 100 µM (inactive)
SK-OV-3
  GI50: > 100 µM (inactive)
DU-145
  GI50: > 100 µM (inactive)
SK-MEL-5
  GI50: 30.4 µM (inactive)
HCT-116
  GI50: 11.9 µM (inactive)
NCI-H522
  GI50: 49 µM (inactive)
SF-268
  GI50: > 100 µM (inactive)
K562
  GI50: > 100 µM (inactive)
MCF7
  GI50: 67.6 µM (inactive)
MOLT-4
  GI50: > 100 µM (inactive)
UACC-257
  GI50: 75.5 µM (inactive)
M14
  GI50: 34.8 µM (inactive)
HCC 2998
  GI50: > 100 µM (inactive)
HOP-62
  GI50: 94.2 µM (inactive)
Malme-3M
  GI50: 75.2 µM (inactive)
U-251
  GI50: 86.5 µM (inactive)
PC-3
  GI50: > 100 µM (inactive)
A549
  GI50: 44.4 µM (inactive)
SNB-75
  GI50: > 100 µM (inactive)
RXF 393
  GI50: 30.1 µM (inactive)
SK-MEL-28
  GI50: 49.7 µM (inactive)
HCT-15
  GI50: 35.6 µM
SW-620
  GI50: 35.6 µM (inactive)
OVCAR-4
  GI50: 76.2 µM (inactive)
IGROV-1
  GI50: 50.2 µM (inactive)
UACC-62
  GI50: 68.4 µM (inactive)
EKVX
  GI50: > 100 µM (inactive)
NCI-H23
  GI50: 97.5 µM (inactive)

## C#CCn1c(=O)c(I)cn(/C(=C\C(=O)OCC)C(=O)OCC)c1=O
SNB-19
  GI50: 26.9 µM (inactive)
OVCAR-5
  GI50: 20.6 µM (inactive)
A498
  GI50: 16.7 µM (inactive)
Hs-578T
  GI50: 49.8 µM (inactive)
NCI-H460
  GI50: 20.3 µM (inactive)
MDA-MB-435
  GI50: 17.1 µM (inactive)
SF-539
  GI50: 18.4 µM (inactive)
KM12
  GI50: 17.3 µM (inactive)
SF-295
  GI50: 18.7 µM (inactive)
SK-MEL-2
  GI50: 18.9 µM (inactive)
NCI/ADR-RES
  GI50: 26.1 µM (inactive)
NCI-H226
  GI50: 17.9 µM (inactive)
SK-OV-3
  GI50: 17.9 µM (inactive)
DU-145
  GI50: 17.5 µM (inactive)
HOP-62
  GI50: 17.4 µM (inactive)
U-251
  GI50: 15.7 µM (inactive)
A549
  GI50: 34.8 µM (inactive)
SNB-75
  GI50: 17.1 µM (inactive)
UACC-62
  GI50: 16.9 µM (inactive)

## CCC(C)c1c(Cl)nc(Cl)nc1Cl (centres undefined)
SNB-19
  GI50: 16 µM (inactive)
OVCAR-5
  GI50: 16.7 µM (inactive)
BT-549
  GI50: 1.75 µM (inactive)
MDA-N
  GI50: 6.44 µM (inactive)
UO-31
  GI50: 17.9 µM (inactive)
SN12C
  GI50: 6.89 µM (inactive)
786-0
  GI50: 10.9 µM (inactive)
Hs-578T
  GI50: 21.6 µM (inactive)
NCI-H460
  GI50: 7.46 µM (inactive)
RPMI-8226
  GI50: 11 µM (inactive)
HT-29
  GI50: 6.01 µM (inactive)
OVCAR-3
  GI50: 4.57 µM (inactive)
MDA-MB-435
  GI50: 2.77 µM (inactive)
ACHN
  GI50: 3.37 µM (inactive)
LOX IMVI
  GI50: 0.44 µM (active)
TK-10
  GI50: 21.3 µM (inactive)
SF-539
  GI50: 23.4 µM (inactive)
SR
  GI50: 1.25 µM (inactive)
KM12
  GI50: 1.78 µM (inactive)
SF-295
  GI50: 24 µM (inactive)
SK-MEL-2
  GI50: 20.9 µM (inactive)
NCI/ADR-RES
  GI50: 24.2 µM (inactive)
NCI-H226
  GI50: 2.86 µM (inactive)
SK-OV-3
  GI50: 36.2 µM (inactive)
DU-145
  GI50: 16.3 µM (inactive)
SK-MEL-5
  GI50: 2.81 µM (inactive)
HCT-116
  GI50: 6.07 µM (inactive)
NCI-H522
  GI50: 0.582 µM (active)
SF-268
  GI50: 8.04 µM (inactive)
K562
  GI50: 2.2 µM (inactive)
CCRF-CEM
  GI50: 0.1 µM (active)
MCF7
  GI50: 4.45 µM (inactive)
MOLT-4
  GI50: 0.271 µM (active)
UACC-257
  GI50: > 10 µM (inactive)
M14
  GI50: 1.44 µM (inactive)
HCC 2998
  GI50: 11.4 µM (inactive)
HOP-62
  GI50: 4.72 µM (inactive)
Malme-3M
  GI50: 5.75 µM (inactive)
U-251
  GI50: 4.16 µM (inactive)
PC-3
  GI50: 12.7 µM (inactive)
OVCAR-8
  GI50: 17.9 µM (inactive)
A549
  GI50: > 10 µM (inactive)
SNB-75
  GI50: 13.8 µM (inactive)
RXF 393
  GI50: 8.02 µM (inactive)
SK-MEL-28
  GI50: 7.18 µM (inactive)
HCT-15
  GI50: 5.13 µM
HL-60
  GI50: 2.99 µM (inactive)
SW-620
  GI50: 3.71 µM (inactive)
OVCAR-4
  GI50: 16.9 µM (inactive)
IGROV-1
  GI50: 14.4 µM (inactive)
UACC-62
  GI50: 18.6 µM (inactive)
EKVX
  GI50: 15.5 µM (inactive)
NCI-H23
  GI50: 2.64 µM (inactive)
